Read-outs that look alike come from different tables or passages of the source.
Columns and labels:
[1] = target: T1, β1-AR (Mus musculus, UniProt P34971); experiment: ICI 118,551 competition binding against [125I]cyanopindolol, control heart sarcolemmal membranes, low affinity component
T1 construct: Sarcolemmal membranes were prepared from control mouse hearts; from tissue; host or cells: sarcolemmal membranes of control mouse hearts (A3), and of control and TGβK12 mouse hearts (A4)
Experimental: Myocardial sarcolemmal membranes were prepared by homogenizing whole hearts in ice-cold buffer A [50 mM HEPES (pH 7.3), 150 mM KCl, 5 mM EDTA]. Nuclei and tissue were separated by centrifugation at 800×g for 10 min and the crude supernatant was then centrifuged at 20,000×g for 10 min. The subsequent pellet was resuspended in buffer A and centrifuged at 20,000×g for 10 min. The final pellet was resuspended at a concentration of 2-3 mg protein per ml in buffer B [50 mM HEPES (pH7.3), 5 mM MgCl2].

[2] = test system: left ventricular function; experiment: LV dP/dtmax before and after systemic β2-AR antagonist; format: in vivo, mouse
Text: FIG. 7. Effect of administering β-AR antagonist. […] Asterisks indicate p<0.05, paired Student's T-test.

[3] = test system: adenylyl cyclase; format: biochemical, mouse; conditions: for NaF stimulated cyclase activity, mean (±SD): 10 mM NaF; for EC50: read-out: EC50 of isoproterenol-stimulated adenylyl cyclase activity
Experimental: FIG. 4. Adenylyl Cyclase Activity. Membranes were prepared from TG4 hearts and nontransgenic litter mate control hearts as described in FIG. 2. […] Each point on the graph represents the mean±SEM of seven independent experiments each performed in duplicate.
The inotropic response resulting from myocardial β-AR stimulation is mediated through activation of adenylyl cyclase and the intracellular second messenger cAMP. To assess whether the myocardium of transgenic animals overexpressing β2-AR had enhanced adenylyl cyclase activity, myocardial membranes were incubated with [^32P]ATP and the rate of cAMP formation was measured.

[4] = target: Gβγ; experiment: cell-based or functional assay
[5] = test system: left ventricular function; experiment: In vivo assessment of left ventricular function, TG4 and control mice; parameters: species or system mouse
[6] = test system: left ventricular function; experiment: In vivo assessment of left ventricular function, TGβK12 and TGMini27 mice; parameters: species or system mouse; conditions: for mean LV dP/dtmax (maximum contractility): 500 pg isoproterenol; for mean LV dP/dtmin (maximum LV relaxation): 1000 pg isoproterenol
Experimental: FIG. 12. In vivo assessment of left ventricular function of TGβK12 (n=10) and nontransgenic control mice (n=10). Animals were anesthetized and aortic and left ventricular catheters placed (28). […]; (B) LV dP/dtmin; (C) heart rate (HR); and (D) LV systolic pressure. Data are reported as means±SEM and were analyzed with a two way analysis of variance (ANOVA) with post hoc testing performed using Scheffe's F test (*, P<0.05). […]; (B) dP/dtmin, P<0.05; (C) HR, P<0.01 but not (D) LV systolic pressure, P=ns.
FIG. 13. In vivo assessment of left ventricular function of TGMini27 (n=7) and nontransgenic control mice (n=7). Mice were treated as in FIG. 4 (28) and four parameters are shown; (A) LV dP/dtmax,; (B) LV dP/dtmin; (C) HR; and (D) LV systolic pressure. Data are reported as mean±SEM and were analyzed as in FIG. 4 (*, P<0.05). […]; (B) dP/dtmin, P<0.005; and (D) LV systolic pressure, P<0.005.
Mice were anesthetized with a mixture of ketamine and xylazine (Milano et al., Science 264, 582 (1994)). A cervical incision was made, the trachea intubated and the animal connected to a volume-cycled ventilator. A carotid artery was then cannulated with a flamestretched PE 50 catheter connected to a modified P50 statham transducer. […]. Continuous pressures were recorded on an eight channel chart recorder and in digitized form on computer disk for beat averaging. Ten sequential beats were averaged for each measurement.

[7] = test system: isolated atria; experiment: Isometric tension development in isolated atria; parameters: species or system mouse; conditions: TG4 atria, doses maximally stimulating controls
Experimental: FIGS. 5A-C. Baseline and maximally stimulated responses in isolated atria. Atria were suspended under optimal resting tension in modified Kreb's bicarbonate solution at 30° C. […]. Data are shown as the mean values±SEM for control animals (n=7 or 8) and TG4 animals (n=5 or 6). In all three responses, the baseline values for the TG4 animals were greater than the baseline in the control animals (* P<0.05 Student's t-test), but not different from either control isoproterenol-stimulated values or from TG4 isoproterenol-stimulated values.
To directly assess the effect of β2-AR overexpression on myocardial inotropy, isometric tension development was determined in isolated, perfused atria. […] In the left atria, basal tension was approximately three times that of the control levels. Baseline isometric tension in the transgenics was not different from the maximal isoproterenol-stimulated tension in control atria. […] To eliminate the possibility that this increased rate might be contributing to the increased tension measured in the transgenic myocardium, experiments were conducted to assess the relationship of rate to developed tension. From a rate of 240 to 360 beats/min. […] All atria studied were weighed, and no significant differences were noted between transgenic and control weights.

[8] = target: Gβγ
[9] = test system: βARK; experiment: GRK activity of heart extracts, rhodopsin phosphorylation assay; format: biochemical, mouse; conditions: TGMini27 heart extracts, 50 μg protein, ~10 pmoles Gβγ, n=5

T1 sequence (P34971 whole entry): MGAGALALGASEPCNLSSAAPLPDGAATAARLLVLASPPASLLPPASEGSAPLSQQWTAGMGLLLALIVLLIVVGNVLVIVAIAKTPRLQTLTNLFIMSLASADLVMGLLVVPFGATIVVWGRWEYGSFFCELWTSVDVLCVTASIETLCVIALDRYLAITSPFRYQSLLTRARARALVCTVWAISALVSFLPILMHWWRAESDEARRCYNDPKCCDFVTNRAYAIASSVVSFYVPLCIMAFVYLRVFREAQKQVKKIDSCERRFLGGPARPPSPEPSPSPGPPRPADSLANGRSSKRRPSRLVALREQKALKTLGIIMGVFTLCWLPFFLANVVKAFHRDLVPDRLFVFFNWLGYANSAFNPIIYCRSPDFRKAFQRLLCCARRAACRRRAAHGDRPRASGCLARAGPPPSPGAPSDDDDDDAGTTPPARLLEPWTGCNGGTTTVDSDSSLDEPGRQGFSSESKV

Cc1ccc(OCC(O)C(C)NC(C)C)c2c1CCC2 (stereo not shown) [ICI 118,551]
Ki [1]: 390 nM | effect on the β1-AR binding component ([1]; 75 nM ICI 118,551): insignificantly affecting | share of low affinity binding population (β1 subtype) ([1]; control mouse heart sarcolemmal membranes): 75% | change in elevated baseline LV dP/dtmax ([2]; TG4 transgenic mice, 5 μg systemic, four minutes after administration): Marked decreases | change in LV dP/dtmax ([2]; control animals): no significant change

[F-].[Na+] [NaF]
NaF stimulated cyclase activity, mean (±SD) ([3]; control membranes): 606.4±207.8 pmol cAMP/min/mg protein | NaF stimulated cyclase activity, mean (±SD) ([3]; transgenic (TG4) membranes): 445.5±165.5 pmol cAMP/min/mg protein

βARK1-(495-689) Minigene (from UniProt P21146 495-689)
stimulation of rhodopsin phosphorylation upon addition of Gβγ (~10 pmoles), heart extracts from TGMini27 mice (fold over basal) [4]: 2.16

CC(C)NCC(O)c1ccc(O)c(O)c1 (stereo not shown) [isoproterenol]
change in LV dP/dtmax ([5]; control animals, isoproterenol infusion): progressive increases | effect on blood pressure ([5]; doses greater than 1 nanogram): significant lowering of blood pressure | left ventricular responses to isoproterenol ([6]; TGMini27 mice versus controls): markedly enhanced | mean LV dP/dtmax (maximum contractility) ([6]; TGMini27 mice): 10,821 mm Hg per sec | mean LV dP/dtmin (maximum LV relaxation) ([6]; TGMini27 mice): −8071 mm Hg per second | inotropic and chronotropic responses to isoproterenol ([6]; TGβK12 animals versus controls): significantly reduced | mean LV dP/dtmax (maximum contractility) ([6]; TGβK12 mice): 6457 mm Hg per sec | mean LV dP/dtmin (maximum LV relaxation) ([6]; TGβK12 mice): −4350 mm Hg per second | inotropic response of atria (isometric tension) [7]: no further inotropic response | EC50 ([3]; TG4 heart membranes): 22 nM | EC50 ([3]; nontransgenic control heart membranes): 160 nM

B1: myocardial βARK (protein)
chain: MADLEAVLADVSYLMAMEKSKATPAARASKKILLPEPSIRSVMQKYLEDRGEVTFEKIFSQKLGYLLFRDFCLNHLEEAKPLVEFYEEIKKYEKLETEEERVVRSREIFDSYIMKELLACSHPFSKNATEHVQGHLVKKQVPPDLFQPYIEEICQNLRGDVFQKFIESDKFTRFCQWKNVELNIHLTMNDFSVHRIIGRGGFGEVYGCRKADTGKMYAMKCLDKKRIKMKQGETLALNERIMLSLVSTGDCPFIVCMSYAFHTPDKLSFILDLMNGGDLHYHLSQHGVFSEADMRFYAAEIILGLEHMHNRFVVYRDLKPANILLDEHGHVRISDLGLACDFSKKRPHASVGTHGYMAPEVLQKGVAYDSSADWFSLGCMLFKLLRGHSPFRQHKTKDKHEIDRMTLTMAVELPDSFSPELRSLLEGLLQRDVNRRLGCLGRGAQEVKESPFFRSLDWQMVFLQKYPPPLIPPRGEVNAADAFDIGSFDEEDTKGIKLLDSDQELYRNFPLTISERWQQEVAETVFDTINAETDRLEARKKAKNKQLGHEEDYALGKDCIVHGYMSKMGNPFLTQWQRRYFYLFPNRLEWRGEGEAPQSLLTMEEIQSVEETQIKERKCLLLKIRGGKQFVLQCDSDPELVQWKKELRDAYREAQQLVQRVPKMKNKPRSPVVELSKVPLIQRGSANGL
stimulation of rhodopsin phosphorylation upon addition of Gβγ (~10 pmoles), control heart extracts [8]: 3.02±0.31 fold over basal, n=5

B2: βARK1-(495-689) Minigene: coding sequence for the last 194 amino acids of bovine βARK1; expressed soluble protein, in vivo βARK inhibitor (protein)
chain: GIKLLDSDQELYRNFPLTISERWQQEVAETVFDTINAETDRLEARKKTKNKQLGHEEDYALGKDCIMHGYMSKMGNPFLTQWQRRYFYLFPNRLEWRGEGEAPQSLLTMEEIQSVEETQIKERKCLLLKIRGGKQFVLQCDSDPELVQWKKELRDAYREAQQLVQRVPKMKNKPRSPVVELSKVPLIQRGSANGL
baseline LV dP/dtmax, LV dP/dtmin and LV systolic pressure compared to control animals ([6]; TGMini27 mice, baseline): statistically elevated | stimulation of rhodopsin phosphorylation by Gβγ [9]: 2.16±0.12 fold over basal
